The structures appear in SMILES notation.

This assay deals with T1, 5-lipoxygenase (Rattus norvegicus, UniProt P12527).
T1 construct: endogenous in cells; host or cells: RBL-1 (rat basophilic leukemia) cells
T1 sequence (P12527 1-673): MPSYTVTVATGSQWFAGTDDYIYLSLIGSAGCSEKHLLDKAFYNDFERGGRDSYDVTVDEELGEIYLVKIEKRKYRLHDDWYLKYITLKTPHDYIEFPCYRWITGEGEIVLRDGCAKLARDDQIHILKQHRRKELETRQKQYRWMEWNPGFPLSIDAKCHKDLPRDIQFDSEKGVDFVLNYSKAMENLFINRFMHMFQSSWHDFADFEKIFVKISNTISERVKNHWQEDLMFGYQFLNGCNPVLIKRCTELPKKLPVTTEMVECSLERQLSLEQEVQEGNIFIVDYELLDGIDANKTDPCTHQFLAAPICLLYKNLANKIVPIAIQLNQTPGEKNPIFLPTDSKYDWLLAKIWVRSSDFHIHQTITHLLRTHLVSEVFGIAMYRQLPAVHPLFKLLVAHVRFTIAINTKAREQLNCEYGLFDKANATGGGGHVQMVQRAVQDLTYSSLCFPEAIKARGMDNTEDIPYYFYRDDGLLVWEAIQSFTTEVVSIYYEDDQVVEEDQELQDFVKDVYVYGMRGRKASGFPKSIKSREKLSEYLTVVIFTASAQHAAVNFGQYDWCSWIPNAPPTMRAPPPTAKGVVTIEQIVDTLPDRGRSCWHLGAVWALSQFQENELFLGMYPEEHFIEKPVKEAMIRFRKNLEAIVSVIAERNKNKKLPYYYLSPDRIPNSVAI
The experiment in a line: Effect of Inhibiting 5-Lipoxygenase (inhibition of 5-HETE production in RBL-1 cells, HPLC). It counts as cell-based. The note with it: arachidonic acid + A-23187, 37° C., 20 min, read-out: % Inhibition (IE) of 5-HETE production; for inhibition at 10 µM: 10^-5 M; for inhibition at 1 µM: 10^-6 M; for inhibition at 0.1 µM: 10^-7 M; for inhibition at 0.01 µM: 10^-8 M. The method, then: In 0.5 ml of MCM (mast cell medium) was suspended 10^7 of rat basophilic leukemia (RBL-1) cells. To this suspension was added the test solution previously prepared [consisting of 0.5 ml of MCM, […] of arachidonic acid, 10 μg of calcium ionophore A-23187 and the test compound (final concentrations 10 μM, 1 μM, 0.1 μM and 0.01 μM)], and the reaction was allowed to proceed at 37° C. for 20 minutes. To the reaction mixture was added 4 ml of ethanol, which was shaken sufficiently, followed by leaving the resultant mixture standing for 10 minutes at room temperatures. The resultant mixture was subjected to a centrifuge (2000 rpm) for 10 minutes, then the supernatant was separated. Thus-separated supernatant was concentrated to dryness under reduced pressure. To the concentrate was added 0.5 ml of a 60% aqueous methanol. A 100 μl portion of this solution was taken and subjected to high performance liquid chromatography to determine 5-HETE (5-hydroxyeicosatetraenoic acid) quantitatively. UV absorption of 5-HETE at 237 nm was measured with a UV absorption monitor. The inhibitory effect (IE) of 5-HETE is expressed by (1-b/a) x 100. In this formula, a means the height of the peak or the area of the peak in the case of presence of no compound (I), while b means the height of the peak or the area of the peak in the case of containing the compound (I).

On to `Cc1c(C)c2c(c(C)c1O)CC(CSCCC(=O)O)O2` (centres unmarked) [Compound 1], for which the inhibition (as a rule, the relative decrease from the control value, in per cent) at 10 µM was determined as 100%; the inhibition at 1 µM worked out at 100%; the inhibition at 0.1 µM came out at 64%; the inhibition at 0.01 µM was found to be 13%.

Regarding `Cc1c(C)c2c(c(C)c1O)CC(CSc1ccccc1)O2` (centres unmarked) [Compound 3], the inhibition at 10 µM is 100%, the inhibition at 1 µM is 100%, the inhibition at 0.1 µM was 100% and the inhibition at 0.01 µM came out at 42%.

Take `CCCCCCCCSCC1Cc2c(C)c(O)c(C)c(C)c2O1` (centres unmarked) [Compound 5]: the inhibition at 10 µM is 100%, the inhibition at 1 µM is 100%, the inhibition at 0.1 µM came out at 48% and the inhibition at 0.01 µM stood at 24%.

Regarding `Cc1c(C)c2c(c(C)c1O)CC(CSc1ccccn1)O2` (centres unmarked) [Compound 7], the inhibition at 10 µM was determined as 100%, the inhibition at 1 µM was found to be 100% and the inhibition at 0.1 µM was 45%.

In the case of `Cc1c(C)c2c(c(C)c1O)CC(CSc1ccc(F)cc1)O2` (centres unmarked) [Compound 9], the inhibition at 10 µM amounted to 100%, the inhibition at 1 µM is 100%, the inhibition at 0.1 µM stood at 96% and the inhibition at 0.01 µM turned out to be 8%.

For `Cc1c(C)c2c(c(C)c1O)CC(CSc1ccc3ccccc3c1)O2` (centres unmarked) [Compound 11], the inhibition at 10 µM was found to be 100%, the inhibition at 1 µM was 100% and the inhibition at 0.1 µM was found to be 19%.

Consider `Cc1c(C)c2c(c(C)c1O)CC(C[S+]([O-])c1ccccc1)O2` (centres unmarked) [Compound 13], for which the inhibition at 10 µM stood at 100%, the inhibition at 1 µM was determined as 100% and the inhibition at 0.1 µM was determined as 8%.

`Cc1c(C)c2c(c(C)c1O)CC(CS(=O)(=O)c1ccccc1)O2` (centres unmarked) [Compound 15]: the inhibition at 10 µM came to 100%, the inhibition at 1 µM came to 100%, the inhibition at 0.1 µM stood at 19% and the inhibition at 0.01 µM was 10%.

As to `Cc1c(C)c2c(c(C)c1O)CC(CSCc1ccccc1)O2` (centres unmarked) [Compound 17], the inhibition at 10 µM came out at 100%, the inhibition at 1 µM is 100% and the inhibition at 0.1 µM came out at 88%.

With `Cc1c(C)c2c(c(C)c1O)CC(C)(CSc1ccccc1)O2` (centres unmarked) [Compound 19], the inhibition at 10 µM was 100%, the inhibition at 1 µM worked out at 99%, the inhibition at 0.1 µM was 87% and the inhibition at 0.01 µM was -5%.

As for `Cc1c(C)c2c(c(C)c1O)CC(C)(CSc1ccc(F)cc1)O2` (centres unmarked) [Compound 21], the inhibition at 10 µM is 100%, the inhibition at 1 µM stood at 100%, the inhibition at 0.1 µM turned out to be 98% and the inhibition at 0.01 µM was 18%.

With `Cc1c(C)c2c(c(C)c1O)CC(C)(CNCCc1ccccc1)O2` (centres unmarked) [Compound 25], the inhibition at 10 µM came out at 95%, the inhibition at 1 µM is 99%, the inhibition at 0.1 µM was determined as 94% and the inhibition at 0.01 µM was determined as 14%.

(Values after patent US4966973A, “2-substituted coumaran derivatives” (Takeda Chemical Industries, Ltd., priority 1988, dated 1990).)
